These results are taken from ChEMBL document CHEMBL5665443, “Enzyme Inhibitor Single Concentration assay results for EUbOPEN Chemogenomics Library” (2024).

The target in experiment [1] is T1, Single-strand selective monofunctional uracil DNA glycosylase (Homo sapiens) (UniProt Q53HV7).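 Note: enzymatic SMUG1 assay coupled with APE1, reading fluorescence at 594 nm released when a quenched double-stranded DNA oligonucleotide substrate is cleaved and separated.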
T1 sequence (whole entry): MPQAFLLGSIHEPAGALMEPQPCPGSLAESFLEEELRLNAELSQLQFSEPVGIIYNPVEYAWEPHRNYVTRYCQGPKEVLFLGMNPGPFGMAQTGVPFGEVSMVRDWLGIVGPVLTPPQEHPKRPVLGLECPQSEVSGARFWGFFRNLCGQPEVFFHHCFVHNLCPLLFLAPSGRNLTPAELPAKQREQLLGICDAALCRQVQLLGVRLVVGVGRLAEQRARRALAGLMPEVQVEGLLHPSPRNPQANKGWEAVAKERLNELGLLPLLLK
Conditions: Hit No.
Description: Inhibition of SMUG1 by quantifying inhibition of SMUG1-mediated cleavage and dissociation of quenched duplex DNA oligonucleotides, measured as fluorescence at 594 nm. To generate a functional strand incision and increase turn-over this assay is coupled to APE1.

The target in experiment [2] is Endonuclease 8-like 1 (Homo sapiens) (UniProt Q96FI4). Conditions: Compound Concentration 10.0 uM, Hit No.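 Note: fluorescence at 594 nm from quenched duplex DNA oligonucleotides released by NEIL1 cleavage and strand separation, reported as reduction of this enzyme activity.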
Description: Inhibition of NEIL1 by quantifying inhibition of NEIL1-mediated cleavage and dissociation of quenched duplex DNA oligonucleotides, measured as fluorescence at 594 nm.
Experiment [3] concerns the target Uracil-DNA glycosylase (Homo sapiens) (UniProt P13051). Conditions: Hit No.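 Note: UNG excision on a quenched double-stranded DNA oligo probe, with APE1 added for strand incision and turnover, read as fluorescence at 594 nm as strands separate.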
Description: Inhibition of UNG by quantifying inhibition of UNG-mediated cleavage and dissociation of quenched duplex DNA oligonucleotides, measured as fluorescence at 594 nm. To generate a functional strand incision and increase turn-over this assay is coupled to APE1.
The target of experiment [4] is G/T mismatch-specific thymine DNA glycosylase (Homo sapiens) (UniProt Q13569). Conditions: Hit No.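 Note: human TDG cleavage of quenched duplex DNA oligonucleotides coupled to APE1, strand release read as fluorescence at 594 nm, inhibition of TDG activity.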
Description: Inhibition of TDG by quantifying inhibition of TDG-mediated cleavage and dissociation of quenched duplex DNA oligonucleotides, measured as fluorescence at 594 nm. To generate a functional strand incision and increase turn-over this assay is coupled to APE1.
In experiment [5] the target is N-glycosylase/DNA lyase (Homo sapiens) (UniProt O15527). To be noted: Hit No.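 Note: OGG1 cleavage of a quenched duplex DNA oligonucleotide, coupled to APE1 for strand incision, read as fluorescence at 594 nm.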
Description: Inhibition of OGG1 by quantifying inhibition of OGG1-mediated cleavage and dissociation of quenched duplex DNA oligonucleotides, measured as fluorescence at 594 nm. To generate a functional strand incision and increase turn-over this assay is coupled to APE1.
In experiment [6] the target is T2, Endonuclease 8-like 2 (Homo sapiens) (UniProt Q969S2).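 Note: fluorescence at 594 nm reports NEIL2 cutting and release of a quenched double-stranded DNA oligo substrate, reduced signal read as inhibition.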
T2 sequence (whole entry): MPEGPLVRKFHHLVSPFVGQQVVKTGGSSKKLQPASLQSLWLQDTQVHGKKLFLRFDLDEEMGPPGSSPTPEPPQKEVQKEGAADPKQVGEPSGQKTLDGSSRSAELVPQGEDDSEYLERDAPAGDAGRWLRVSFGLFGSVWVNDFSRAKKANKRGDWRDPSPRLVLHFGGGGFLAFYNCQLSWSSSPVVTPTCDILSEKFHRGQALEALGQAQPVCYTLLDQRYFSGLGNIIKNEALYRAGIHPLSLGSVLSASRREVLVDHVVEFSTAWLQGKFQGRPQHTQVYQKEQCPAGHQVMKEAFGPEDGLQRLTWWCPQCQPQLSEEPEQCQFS
To be noted: Hit No.
Description: Inhibition of NEIL2 by quantifying inhibition of NEIL2-mediated cleavage and dissociation of quenched duplex DNA oligonucleotides, measured as fluorescence at 594 nm.

In experiment [7] the target is Methyl-CpG-binding domain protein 4 (Homo sapiens) (UniProt O95243). Conditions: Hit No.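 Note: MBD4 activity read as fluorescence at 594 nm from cleavage and release of a quenched duplex DNA oligonucleotide, with APE1 coupled to incise the strand and raise turnover.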
Description: Inhibition of MBD4 by quantifying inhibition of MBD4-mediated cleavage and dissociation of quenched duplex DNA oligonucleotides, measured as fluorescence at 594 nm. To generate a functional strand incision and increase turn-over this assay is coupled to APE1.
Experiment [8] addresses T3, Endonuclease III-like protein 1 (Homo sapiens) (UniProt P78549).
T3 sequence (whole entry): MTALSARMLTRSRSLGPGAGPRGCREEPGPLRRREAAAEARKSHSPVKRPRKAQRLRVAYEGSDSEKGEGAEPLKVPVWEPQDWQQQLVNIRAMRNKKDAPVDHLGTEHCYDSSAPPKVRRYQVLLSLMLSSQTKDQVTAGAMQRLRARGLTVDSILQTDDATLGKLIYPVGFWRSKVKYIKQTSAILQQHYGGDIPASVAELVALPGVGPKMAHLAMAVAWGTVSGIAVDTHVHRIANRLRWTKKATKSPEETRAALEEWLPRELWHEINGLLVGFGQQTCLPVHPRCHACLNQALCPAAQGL
Conditions: Hit No.
Description: Inhibition of NTHL1 by quantifying inhibition of NTHL1-mediated cleavage and dissociation of quenched duplex DNA oligonucleotides, measured as fluorescence at 594 nm.

The term inhibition denotes the change of the read-out against control, counted positive when it falls.

Sequence of N-glycosylase/DNA lyase (Homo sapiens) (O15527 whole entry): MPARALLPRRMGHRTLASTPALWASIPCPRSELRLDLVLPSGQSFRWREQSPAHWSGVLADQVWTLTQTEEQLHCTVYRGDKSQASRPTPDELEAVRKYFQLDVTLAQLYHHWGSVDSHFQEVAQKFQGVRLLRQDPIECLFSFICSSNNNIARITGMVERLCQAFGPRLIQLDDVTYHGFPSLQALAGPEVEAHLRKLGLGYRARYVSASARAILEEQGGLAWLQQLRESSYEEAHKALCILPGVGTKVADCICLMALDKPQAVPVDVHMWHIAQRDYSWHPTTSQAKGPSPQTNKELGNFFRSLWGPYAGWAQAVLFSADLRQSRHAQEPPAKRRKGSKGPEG
Sequence of Methyl-CpG-binding domain protein 4 (Homo sapiens) (O95243 whole entry, the tested form may be a part): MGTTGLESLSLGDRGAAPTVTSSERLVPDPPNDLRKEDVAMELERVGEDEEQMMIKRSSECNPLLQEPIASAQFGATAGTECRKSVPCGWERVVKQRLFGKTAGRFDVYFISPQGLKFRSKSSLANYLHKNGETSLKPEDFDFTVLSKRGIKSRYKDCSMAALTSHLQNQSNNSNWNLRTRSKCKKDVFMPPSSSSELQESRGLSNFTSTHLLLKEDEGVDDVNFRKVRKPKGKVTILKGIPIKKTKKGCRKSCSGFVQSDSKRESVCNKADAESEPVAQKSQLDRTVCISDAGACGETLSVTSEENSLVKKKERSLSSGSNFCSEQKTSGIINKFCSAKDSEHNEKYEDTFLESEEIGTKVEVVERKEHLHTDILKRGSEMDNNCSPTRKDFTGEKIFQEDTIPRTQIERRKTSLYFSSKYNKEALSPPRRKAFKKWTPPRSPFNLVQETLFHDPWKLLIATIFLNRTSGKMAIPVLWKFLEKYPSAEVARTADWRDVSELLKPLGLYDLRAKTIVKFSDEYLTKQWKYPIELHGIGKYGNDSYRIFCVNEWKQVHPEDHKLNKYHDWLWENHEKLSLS
Sequence of G/T mismatch-specific thymine DNA glycosylase (Homo sapiens) (Q13569 whole entry): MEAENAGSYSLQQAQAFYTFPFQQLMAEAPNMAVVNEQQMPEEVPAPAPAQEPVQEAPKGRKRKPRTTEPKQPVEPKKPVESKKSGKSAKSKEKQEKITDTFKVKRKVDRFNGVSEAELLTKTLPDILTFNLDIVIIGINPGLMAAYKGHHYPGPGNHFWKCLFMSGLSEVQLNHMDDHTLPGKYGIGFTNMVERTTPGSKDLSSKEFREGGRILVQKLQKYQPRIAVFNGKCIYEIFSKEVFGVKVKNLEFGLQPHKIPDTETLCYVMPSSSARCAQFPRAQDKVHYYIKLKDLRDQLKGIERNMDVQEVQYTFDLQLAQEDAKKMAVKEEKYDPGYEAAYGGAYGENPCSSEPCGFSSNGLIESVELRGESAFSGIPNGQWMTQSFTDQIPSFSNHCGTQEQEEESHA
Sequence of Endonuclease 8-like 1 (Homo sapiens) (Q96FI4 whole entry): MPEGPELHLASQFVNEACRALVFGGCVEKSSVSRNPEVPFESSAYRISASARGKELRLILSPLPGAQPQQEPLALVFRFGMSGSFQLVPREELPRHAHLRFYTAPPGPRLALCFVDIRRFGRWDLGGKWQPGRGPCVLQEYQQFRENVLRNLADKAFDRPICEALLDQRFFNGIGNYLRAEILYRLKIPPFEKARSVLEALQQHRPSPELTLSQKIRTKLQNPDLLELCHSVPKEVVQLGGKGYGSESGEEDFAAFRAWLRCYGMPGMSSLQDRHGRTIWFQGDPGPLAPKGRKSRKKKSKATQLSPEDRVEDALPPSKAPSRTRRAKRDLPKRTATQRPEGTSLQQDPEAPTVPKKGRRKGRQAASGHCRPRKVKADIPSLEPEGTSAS
Sequence of Uracil-DNA glycosylase (Homo sapiens) (P13051 whole entry): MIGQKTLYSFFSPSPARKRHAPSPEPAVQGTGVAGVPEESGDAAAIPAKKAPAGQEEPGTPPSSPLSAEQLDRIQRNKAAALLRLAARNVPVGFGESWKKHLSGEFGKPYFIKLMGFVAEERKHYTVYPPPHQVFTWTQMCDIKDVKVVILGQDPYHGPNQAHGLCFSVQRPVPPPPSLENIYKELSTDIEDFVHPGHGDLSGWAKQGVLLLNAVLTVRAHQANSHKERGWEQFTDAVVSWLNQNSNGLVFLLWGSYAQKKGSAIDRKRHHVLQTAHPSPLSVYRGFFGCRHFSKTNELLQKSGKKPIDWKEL

As for `Cn1cc(-c2ccc3occ(-c4ccccc4-c4ccccc4)c3n2)cn1`, the inhibition in experiment [1] (Compound Concentration 10.0 uM) is 17.5%; in experiment [2], 6.35%; in experiment [3] (Compound Concentration 10.0 uM) it was 0.982%; in experiment [4] (Compound Concentration 10.0 uM), 33.2%; in experiment [5] (Compound Concentration 10.0 uM), -7.06%; in experiment [6] (Compound Concentration 10.0 uM), 1.31%. In addition, the inhibition is -2.48% in experiment [7] (Compound Concentration 10.0 uM) and -8.28% in experiment [8] (Compound Concentration 10.0 uM).
For the molecule `COc1cc(-c2cncc(-c3ccc(N4CCN(C(C)C)CC4)cc3)c2C)cc(F)c1C(=O)N1CCCC1`, the inhibition in experiment [1] (Compound Concentration 10.0 uM) is 28.7%; in experiment [2], 3.31%; in experiment [3] (Compound Concentration 10.0 uM), 7.27%; in experiment [4] (Compound Concentration 10.0 uM), 47.2%; in experiment [5] (Compound Concentration 10.0 uM), 12.1%; in experiment [6] (Compound Concentration 10.0 uM), -8.65%. The inhibition in experiment [7] (Compound Concentration 10.0 uM) came to 0.55%; in experiment [8] (Compound Concentration 10.0 uM) it was 0.0872%.
With `Cc1cc(C(=O)N2CCN(C3CN(C(=O)c4ccc(-c5ccccc5)cc4)C3)CC2)no1`, the inhibition in experiment [1] (Compound Concentration 10.0 uM) was 21.1%; in experiment [2] it was -3.92%; in experiment [3] (Compound Concentration 10.0 uM) it was 2.8%; in experiment [4] (Compound Concentration 10.0 uM) it was 35.7%; in experiment [5] (Compound Concentration 10.0 uM), -2.62%; in experiment [6] (Compound Concentration 10.0 uM), -4.32%. The inhibition in experiment [7] (Compound Concentration 10.0 uM) amounted to 49.9%; in experiment [8] (Compound Concentration 10.0 uM), 1.34%.
As for `FC(F)(F)c1c(N2CCC(c3ccccc3)CC2)ccn2c(CC3CC3)nnc12`, the inhibition in experiment [1] (Compound Concentration 10.0 uM) was 1.61%; in experiment [2], -4.5%; in experiment [3] (Compound Concentration 10.0 uM) it was -5.14%; in experiment [4] (Compound Concentration 10.0 uM), 16.4%; in experiment [5] (Compound Concentration 10.0 uM) it was 0.771%; in experiment [6] (Compound Concentration 10.0 uM), -1.48%. The inhibition in experiment [7] (Compound Concentration 10.0 uM) came out at 5.84%; in experiment [8] (Compound Concentration 10.0 uM) it was 7.79%.
On to `COc1ccc(-c2ccc3cc(C(=O)O)ccc3c2)cc1C12CC3CC(CC(C3)C1)C2`, for which the inhibition was 7.63% in experiment [1] (Compound Concentration 10.0 uM); -5.14% in experiment [2]; -6.23% in experiment [3] (Compound Concentration 10.0 uM); 39.5% in experiment [4] (Compound Concentration 10.0 uM); 34.6% in experiment [5] (Compound Concentration 10.0 uM); -6.1% in experiment [6] (Compound Concentration 10.0 uM). Moreover, the figures for the inhibition in experiment [7] (Compound Concentration 10.0 uM) and in experiment [8] (Compound Concentration 10.0 uM) were 48.6% and 6.6%, respectively.
Consider `C=C1/C(=C\C=C2/CCC[C@]3(C)[C@@H]([C@H](C)/C=C/C=C/C(O)(CC)CC)CC[C@@H]23)C[C@@H](O)C[C@@H]1O`, for which the inhibition in experiment [1] (Compound Concentration 10.0 uM) is -1.6%; in experiment [2], 0.77%; in experiment [3] (Compound Concentration 10.0 uM) it was 0.169%; in experiment [4] (Compound Concentration 10.0 uM), 28.5%; in experiment [5] (Compound Concentration 10.0 uM) it was -1.05%; in experiment [6] (Compound Concentration 10.0 uM), 15.3%. For the same molecule, the figures for the inhibition in experiment [7] (Compound Concentration 10.0 uM) and in experiment [8] (Compound Concentration 10.0 uM) were 53.8% and -4.57%, respectively.
Consider `O=C(NCCCn1ccnc1)c1cc2nc(-c3ccccc3)cc(-c3ccccc3)n2n1`, for which the inhibition in experiment [1] (Compound Concentration 10.0 uM) was 12%; in experiment [3] (Compound Concentration 10.0 uM) it was 4.11%; in experiment [4] (Compound Concentration 10.0 uM) it was 44.7%; in experiment [5] (Compound Concentration 10.0 uM), -1.93%; in experiment [6] (Compound Concentration 10.0 uM), -9.67%; in experiment [7] (Compound Concentration 10.0 uM), 28.3%. Moreover, in experiment [8] (Compound Concentration 10.0 uM), the inhibition was -4.57%.
On to `Cc1cc(C)c(S(=O)(=O)N(Cc2ccc(-c3cccc(S(C)(=O)=O)c3)cc2)Cc2ccc(C(F)(F)F)o2)c(C)c1`, for which the inhibition in experiment [1] (Compound Concentration 10.0 uM) was 7.91%; in experiment [3] (Compound Concentration 10.0 uM), -2.84%; in experiment [4] (Compound Concentration 10.0 uM), 97.7%; in experiment [5] (Compound Concentration 10.0 uM) it was -3.9%; in experiment [6] (Compound Concentration 10.0 uM) it was -8.4%; in experiment [7] (Compound Concentration 10.0 uM), 60.3%. Moreover, the inhibition in experiment [8] (Compound Concentration 10.0 uM) is 5.94%.
In the case of `CN(C)C(=O)/C(C#N)=C/c1ccc(-c2nc3cnc4c(ccn4C)c3n2C2CCCCC2)o1`, the inhibition in experiment [1] (Compound Concentration 1.0 uM) was 2.69%; in experiment [3] (Compound Concentration 1.0 uM), -0.285%; in experiment [4] (Compound Concentration 1.0 uM), 49.4%; in experiment [5] (Compound Concentration 1.0 uM) it was -5.75%; in experiment [6] (Compound Concentration 1.0 uM), -3.8%; in experiment [7] (Compound Concentration 1.0 uM) it was 95%. The inhibition in experiment [8] (Compound Concentration 1.0 uM) turned out to be 0.785%.
